Consider one molecule from US7658954B2, “Synergistic antipyretic formulation” (Council of Scientific & Industrial Research, priority 2004, dated 2010).

This assay deals with yeast induced pyrexia. Description: Antipyretic effect on yeast induced pyrexia in rats. The format is in vivo. The note with it: Paracetamol 150 mg/kg.

Marks after values point to notes of the source that are not given here.

With `CC(=O)Nc1ccc(O)cc1` [Paracetamol], the “Rectal temperature before and after treatment” value was 37.7 ± 0.2 °C (0 h); 39.0 ± 0.2 °C (1 h); 38.1 ± 0.3 °C (2 h); 37.7 ± 0.2^b ° C (3 h); 37.6 ± 0.2 °C (4 h).
